The structures appear in SMILES notation.

The conditions of this data set: Log P, [a] LC-UV, acidic range.

Method: Measurement of Log P values was performed according to EEC directive 79/831 Annex V.A8 by HPLC (High Performance Liquid Chromatography) on reversed phase columns with the following methods:
[a] Log P value is determined by measurement of LC-UV, in an acidic range, with 0.1% formic acid in water and acetonitrile as eluent (linear gradient from 10% acetonitrile to 95% acetonitrile).
Calibration was done with straight-chain alkan2-ones (with 3 to 16 carbon atoms) with known Log P values (measurement of Log P values using retention times with linear interpolation between successive alkanones).

In the case of `C#CCOc1ccc(F)c(F)c1C1CC(c2csc(C3CCN(C(=O)Nc4cc(C)ccc4C)CC3)n2)=NO1` (stereo not shown) [Example I-3], the chromatographic logP stood at 3.45.

The chromatographic logP is a lipophilicity value derived from retention on a column. A low value points to a more hydrophilic compound.

The values are drawn from US20170137417A1 (priority 2014, published 2017).
